Test results from patent publication US9527885B2, “Hepatitis C virus inhibitors” (BRISTOL-MYERS SQUIBB COMPANY, priority 2011, dated 2016).
Where two headings read alike, the source gives them in different places.

How the values were obtained:
[1] = tested on: HCV genotype 1b (Con1) replicon in HUH-7 cells; test: HCV replicon luciferase reporter assay, genotype 1b; assay type: cell-based; conditions: 3 days incubation
Text: An HCV replicon whole cell system was established as described by Lohmann V, Korner F, Koch J, Herian U, Theilmann L, Bartenschlager R., Science 285(5424):110-3 (1999) and modified to introduce a luciferase reporter, as first described by Krieger et al (Krieger N, Lohmann V, and Bartenschlager R, J. Virol. 75(10):4614-4624 (2001)). CDNA encoding a humanized form of the Renilla luciferase gene and a linker sequence fused directly to the 3′-end of the luciferase gene were introduced into the replicon construct using an Asc1 restriction site located in core, directly upstream of the neomycin marker gene. The adaptive mutation at position 1179 (serine to isoleucine) was also introduced (Blight K J, Kolykhalov, A A, Rice, C M, Science 290(5498):1972-1974). A stable cell line constitutively expressing this HCV replicon construct was generated by first linearizing plasmid DNAs with ScaI. RNA transcripts were synthesized in vitro using the T7 MegaScript transcription kit (Ambion, Austin, Tex.) according to manufacturer's directions. In vitro transcripts of the cDNA were transfected into the human hepatoma cell line, HUH-7. […] Resulting cell lines were characterized for positive and negative strand RNA production and protein production over time. […]
(§1) HCV replicon luciferase assays were developed to monitor the inhibitory effects of compounds described in the disclosure on HCV genotypes 1a and 1b viral replication. HUH-7 cells, constitutively expressing the HCV replicon, were grown in Dulbecco's Modified Eagle Media (DMEM) (Gibco-BRL) containing 10% Fetal calf serum (FCS) (Sigma) and 1 mg/mL G418 (Gibco-BRL). Compounds were serially diluted 3 folds in DMSO for a twenty-point titration and subsequently transferred to sterile 384-well tissue-culture treated plates (Corning cat #3571). The plates were then seeded with 50 μL of cells at a density of 3.0×10^3 cells/well in DMEM containing 4% FCS (final DMSO concentration at 0.5%). After 3 days incubation at 37° C., cells were analyzed for Renilla Luciferase activity using the EnduRen as substrate (Promega cat #E6485). The EnduRen substrate was diluted in DMEM and then added to the plates to a final concentration of 7.5 μM. The plates were incubated for 2 hrs at 37° C. and then read immediately for 30 seconds with Viewlux Imager (PerkinElmer) using a luminescence program. To assess cytotoxicity of compounds, CC50 values were generated by multiplexing the EnduRen-containing plates with Cell Titer-Blue (Promega, cat # G8082). Cell-Titer Blue (3 μL) was added to each well and incubated for 8 hrs at 37° C. The fluorescence signal from each well was read, with an excitation wavelength at 525/10 nm and an emission wavelength of 598/10 nm, using the Viewlux Imager.
(§2) The EC50 values for compounds were calculated by using a four-parameter logistic equation: y=A+((B−A)/(1+((C/x)^D))), where A and B denotes minimal and maximal % inhibition, respectively, C is the EC50, D is the hill slope and x represents compound concentration.

[2] = tested on: HCV genotype 1a (H77 strain) replicon in HUH-7 cells; test: HCV replicon luciferase reporter assay, genotype 1a; assay type: cell-based; conditions: 3 days incubation
Text: An HCV replicon whole cell system was established as described by Lohmann V, Korner F, Koch J, Herian U, Theilmann L, Bartenschlager R., Science 285(5424):110-3 (1999) and modified to introduce a luciferase reporter, as first described by Krieger et al (Krieger N, Lohmann V, and Bartenschlager R, J. Virol. 75(10):4614-4624 (2001)). CDNA encoding a humanized form of the Renilla luciferase gene and a linker sequence fused directly to the 3′-end of the luciferase gene were introduced into the replicon construct using an Asc1 restriction site located in core, directly upstream of the neomycin marker gene. The adaptive mutation at position 1179 (serine to isoleucine) was also introduced (Blight K J, Kolykhalov, A A, Rice, C M, Science 290(5498):1972-1974). A stable cell line constitutively expressing this HCV replicon construct was generated by first linearizing plasmid DNAs with ScaI. RNA transcripts were synthesized in vitro using the T7 MegaScript transcription kit (Ambion, Austin, Tex.) according to manufacturer's directions. In vitro transcripts of the cDNA were transfected into the human hepatoma cell line, HUH-7. […] Resulting cell lines were characterized for positive and negative strand RNA production and protein production over time.
A stable HCV replicon luciferase reporter cell line representing the genotype 1a H77 strain (Yanagi M, Purcell R H, Emerson S U, et al. Transcripts from a single full-length cDNA clone of hepatitis C virus are infectious when directly transfected into the liver of a chimpanzee. Proc Natl Acad Sci USA 1997; 94(16):8738-8743) was generated as described previously for the genotype 1b (Con1) replicon luciferase cell line. The replicon construct was modified by introducing mutations were introduced into the genes encoding the NS3 helicase domain (proline replaced by leucine at position 1496) and NS5A (serine to isoleucine at position 2204) to improve replication in cell culture.
as §1, §2

[3] = Hepatitis C virus, 72 h, HCV genotype 1b replicon luciferase reporter, range class, read-out: LE_1b (EC50, range)
[4] = Hepatitis C virus, Huh-7, 72 h, HCV genotype 1a replicon luciferase reporter, range class, read-out: LE_1a (EC50, range)

## 1,1,1-trifluoro-2-methylpropan-2-yl ((2R,6S,7R,9S,13aS,14aR,16aS,Z)-7-ethyl-14a-(((1-(fluoromethyl)cyclopropyl)sulfonyl)carbamoyl)-9-methyl-2-((4-methyl-3,4-dihydro-2H-[1,4]oxazino[2,3-f]isoquinolin-7-yl)oxy)-5,16-dioxo-1,2,3,5,6,7,8,9,10,11,13a,14,14a,15,16,16a-hexadecahydrocyclopropa[e]pyrrolo[1,2-a][1,4]diazacyclopentadecin-6-yl)carbamate [Compound 5319]
[1]; HCV genotype 1b replicon luciferase, read-out: LE_1b (EC50)
  EC50: 14.2 nM
[2]; HCV genotype 1a replicon luciferase, read-out: LE_1a (EC50)
  EC50: 33.6 nM

## COc1cnc(O[C@@H]2C[C@H]3C(=O)N[C@]4(C(=O)NS(=O)(=O)C5CC5)C[C@H]4/C=C\CC[C@@H](C)C[C@@H](C)[C@H](NC(=O)OC(C)(C)C(F)(F)F)C(=O)N3C2)c2ccccc12 [Compound 3, 1,1,1-trifluoro-2-methylpropan-2-yl ((2R,6S,7R,9R,13aS,14aR,16aS,Z)-14a-((cyclopropylsulfonyl)carbamoyl)-2-((4-methoxyisoquinolin-1-yl)oxy)-7,9-dimethyl-5,16-dioxo-1,2,3,5,6,7,8,9,10,11,13a,14,14a,15,16,16a-hexadecahydrocyclopropa[e]pyrrolo[1,2-a][1,4]diazacyclopentadecin-6-yl)carbamate]
[1]; [3]
  EC50: < 5.46 nM
[2]; [4]
  EC50: < 5.46 nM

## COCCOc1cc2c(Cl)cccc2c(O[C@@H]2C[C@H]3C(=O)N[C@]4(C(=O)NS(=O)(=O)C5(C)CC5)C[C@H]4/C=C\CC[C@@H](C)C[C@@H](C)[C@H](NC(=O)OC(C)(C)C(F)(F)F)C(=O)N3C2)n1 [Compound 1114, 1,1,1-trifluoro-2-methylpropan-2-yl ((2R,6S,7R,9R,13aS,14aR,16aS,Z)-2-((5-chloro-3-(2-methoxyethoxyl)isoquinolin-1-yl)oxy)-7,9-dimethyl-14a-(((1-methylcyclopropyl)sulfonyl)carbamoyl)-5,16-dioxo-1,2,3,5,6,7,8,9,10,11,13a,14,14a,15,16,16a-hexadecahydrocyclopropa[e]pyrrolo[1,2-a][1,4]diazacyclopentadecin-6-yl)carbamate]
[1]; [3]
  EC50: < 5.46 nM
[2]; [4]
  EC50: < 5.46 nM

## C[C@@H]1CCC[C@H](O)[C@@H]2C[C@@]2(C(=O)NS(=O)(=O)C2(C)CC2)NC(=O)[C@@H]2C[C@@H](Oc3ncc(OC4CC4)c4ccccc34)CN2C(=O)[C@@H](NC(=O)OC(C)(C)C(F)(F)F)[C@H](C)C1 [Compound 2002, 1,1,1-trifluoro-2-methylpropan-2-yl ((2R,6S,7R,9R,13S,13aR,14aR,16aS)-2-((4-cyclopropoxyisoquinolin-1-yl)oxy)-13-hydroxy-7,9-dimethyl-14a-(((1-methylcyclopropyl)sulfonyl)carbamoyl)-5,16-dioxooctadecahydrocyclopropa[e]pyrrolo[1,2-a][1,4]diazacyclopentadecin-6-yl)carbamate]
[1]; [3]
  EC50: 4.82 to 103 nM
[2]; [4]
  EC50: 4.82 to 103 nM

## COc1ccc2c(O[C@@H]3C[C@H]4C(=O)N[C@]5(C(=O)NS(=O)(=O)C6(C)CC6)C[C@H]5/C=C\CC[C@H](C)C[C@@H](C)[C@H](NC(=O)OC(C)(C)C(F)(F)F)C(=O)N4C3)nc(N(C)C)cc2c1 [Compound 3116, 1,1,1-trifluoro-2-methylpropan-2-yl ((2R,6S,7R,9S,13aS,14aR,16aS,Z)-2-((3-(dimethylamino)-6-methoxyisoquinolin-1-yl)oxy)-7,9-dimethyl-14a-(((1-methylcyclopropyl)sulfonyl)carbamoyl)-5,16-dioxo-1,2,3,5,6,7,8,9,10,11,13a,14,14a,15,16,16a-hexadecahydrocyclopropa[e]pyrrolo[1,2-a][1,4]diazacyclopentadecin-6-yl)carbamate]
[1]; [3]
  EC50: < 5.46 nM
[2]; [4]
  EC50: 4.82 to 103 nM

## COc1ccc2c(O[C@@H]3C[C@H]4C(=O)N[C@]5(C(=O)NS(=O)(=O)C6(C)CC6)C[C@H]5/C=C\CC[C@@H](C)C[C@@H](C)[C@H](NC(=O)OC(C)(C)C(F)(F)F)C(=O)N4C3)nc(N(C)C)cc2c1 [Compound 3117, 1,1,1-trifluoro-2-methylpropan-2-yl ((2R,6S,7R,9R,13aS,14aR,16aS,Z)-2-((3-(dimethylamino)-6-methoxyisoquinolin-1-yl)oxy)-7,9-dimethyl-14a-(((1-methylcyclopropyl)sulfonyl)carbamoyl)-5,16-dioxo-1,2,3,5,6,7,8,9,10,11,13a,14,14a,15,16,16a-hexadecahydrocyclopropa[e]pyrrolo[1,2-a][1,4]diazacyclopentadecin-6-yl)carbamate]
[1]; [3]
  EC50: < 5.46 nM
[2]; [4]
  EC50: < 5.46 nM

## COc1ccc2c(O[C@@H]3C[C@H]4C(=O)N[C@]5(C(=O)NS(=O)(=O)C6(CF)CC6)C[C@H]5/C=C\CC[C@@H](C)C[C@@H](C)[C@H](NC(=O)OC(C)(C)C(C)(F)F)C(=O)N4C3)nc(N(C)C)cc2c1 [Compound 3125, 3,3-difluoro-2-methylbutan-2-yl ((2R,6S,7R,9R,13aS,14aR,16aS,Z)-2-((3-(dimethylamino)-6-methoxyisoquinolin-1-yl)oxy)-14a-(((1-(fluoromethyl)cyclopropyl)sulfonyl)carbamoyl)-7,9-dimethyl-5,16-dioxo-1,2,3,5,6,7,8,9,10,11,13a,14,14a,15,16,16a-hexadecahydrocyclopropa[e]pyrrolo[1,2-a][1,4]diazacyclopentadecin-6-yl)carbamate]
[1]; [3]
  EC50: < 5.46 nM
[2]; [4]
  EC50: 4.82 to 103 nM

## COc1ccc2c(O[C@@H]3C[C@H]4C(=O)N[C@]5(C(=O)NS(=O)(=O)C6(CF)CC6)C[C@H]5/C=C\CC[C@H](C)C[C@@H](C)[C@H](NC(=O)OC(C)(C)C(F)(F)F)C(=O)N4C3)nc(N(C)C)cc2c1 [Compound 3126, 1,1,1-trifluoro-2-methylpropan-2-yl ((2R,6S,7R,9S,13aS,14aR,16aS,Z)-2-((3-(dimethylamino)-6-methoxyisoquinolin-1-yl)oxy)-14a-(((1-(fluoromethyl)cyclopropyl)sulfonyl)carbamoyl)-7,9-dimethyl-5,16-dioxo-1,2,3,5,6,7,8,9,10,11,13a,14,14a,15,16,16a-hexadecahydrocyclopropa[e]pyrrolo[1,2-a][1,4]diazacyclopentadecin-6-yl)carbamate]
[1]; [3]
  EC50: 4.82 to 103 nM
[2]; [4]
  EC50: 4.82 to 103 nM
